# Reference: patent US20070031398A1, “One of several enzyme-containing compounds, dietetic food products and drugs produced from and the use therefor for medical purpose” (MUCOS PHARMA GmbH & Co., priority 2003, published 2007)
# Tested on: prostate carcinomas
# Assay: concomitant therapy during treatment of carcinomas
# Type: in vivo
# Details: prophylactic and therapeutic effects
# Excerpt: This applies both to the period before, during and at defined intervals after the tumor-destructive therapy, e.g. an operation, chemotherapy and/or radiotherapy. The reduced intake of micronutrients (e.g. vitamins, trace elements) which is caused by nausea, reduced food intake, vomiting, diarrhea and sweating is compensated. This improves the patient's tolerance of the treatment, increases the response to the therapy and improves the patient's quality of life. […] Overall, the efficacy of the tumor-destructive therapy is improved.
structure (smiles),measurement,value
CC(C)=CCC/C(C)=C/C=C/C(C)=C/C=C/C(C)=C/C=C/C=C(C)/C=C/C=C(C)/C=C/C=C(\C)CCC=C(C)C [lycopene],incidence and aggressiveness of prostate carcinomas,reduction in the incidence and aggressiveness
